According to US11623931B2, “Bicyclic compounds for diagnosis and therapy” (AC IMMUNE SA, priority 2016, dated 2023):

Assays:
[1] = molecular target: T1, aSyn aggregates on PD sections (Homo sapiens, UniProt P37840); assay: Assay 1 (fluorescence based assay): direct staining of human Parkinson's disease brain sections; format: binding; design: key: − (No); +/− (very weak); + (weak); ++ (good); +++ (strong); conditions: staining intensity; compound 100 μM, frozen amygdala sections, PD Braak stage V-VI
T1 construct: 20 μm frozen sections from amygdala were purchased from an external provider (Tissue Solutions Ltd.); tissue Tissue Solutions Ltd; host or cells: human PD amygdala, frozen sections, Braak stage V-VI
Source text: Assay 1 (Fluorescence Based Assay):
(§1) Direct Staining of Compounds of this Invention to Human Parkinson's Disease Brain Sections
(§2) 20 μm frozen sections from amygdala were purchased from an external provider (Tissue Solutions Ltd.). Donors were diagnosed with PD, Braak stage V-VI (Braak et al., Neurobiol. Aging, 2003, 24, 197-211) and thus with confirmed aSyn pathology. PD donors, Braak stage V-VI with mixed pathology, containing aSyn aggregates as well as Aβ plaques, were also used in this assay. Sections were kept at −80° C. until start of the experiment.
(§3) Brain sections were encircled with pap pen liquid blocker to reduce the volume of solution for the different incubations. Sections were fixed for 15 min at 4° C. with 4% paraformaldehyde and washed three times for 5 minutes with PBS (phosphate buffered saline) at room temperature. Test compounds were incubated on the sections at 100 μM in 50% ethanol in water for 30 min at room temperature, followed by three washes of 5 minutes with PBS. Sections were then saturated and permeabilized in blocking buffer (PBS, 10% NGS, 0.25% Triton) for 1 hour at room temperature and then incubated for 2 hours at room temperature with the primary antibodies against aSyn: aSyn-211 (SantaCruz Biotechnology sc-12767) or aSyn-pS129 (Abcam AB51253), and primary antibody against AR, 4G8, (Covance, SIG-39220). All primary antibodies diluted 1/250 in PBS, 5% NGS, 0.25% Triton. After three washes in PBS, the sections were incubated for 30 minutes at room temperature with a secondary anti-mouse antibody labeled with AlexaFluor555 (Invitrogen A21422) or anti-rabbit antibody labeled with AlexaFluor555 (Invitrogen A21428) and further washed three times in PBS. To reduce auto-fluorescence of the tissue, the sections were incubated in a solution of 0.1% Sudan Black (Sigma 199664) in 70% ethanol for 15 min at room temperature, followed by four washes with PBS and mounted under cover slips using ProLong Gold Antifade reagent (Invitrogen P36930).
(§4) Sections were analyzed on the Nikon Eclipse Ti microscope to detect staining and imaged using Nikon DS-Fi2 camera and NIS-Element AR4.13.1 software.

[2] = system: Aβ plaques on PD sections with mixed pathology; assay: Assay 1 (fluorescence based assay): direct staining of PD brain sections with mixed pathology; format: binding, human; design: key: − (No); +/− (very weak); + (weak); ++ (good); +++ (strong); conditions: staining intensity; compound 100 μM, frozen amygdala sections, PD Braak stage V-VI with aSyn aggregates and Aβ plaques
Experimental: as §1, §2, §3, §4

SMILES | Staining of aSyn aggregates on PD sections [1] | Staining of Aβ plaques on PD sections with mixed pathology [2]
F[C@H]1CCCN(c2ccc(-c3nc4ncc(-c5cccnc5)cc4s3)cn2)C1 [Example 101] | ++ | +
Nc1ccc(-c2cc3ccc(-c4ccc(F)nc4)nc3s2)cn1 [Example 105] | +++ | ++
CNc1ccc(-c2cc3ccc(-c4ccc(F)nc4)nc3s2)cc1F [Example 106] | +++ | +++
Fc1ncccc1-c1ccc2sc(-c3ccc(N4CCCC4)nc3)nc2n1 [Example 108] | ++ | +/−
Fc1ccc(-c2ccc3sc(-c4ccc(N5CCCC5)nc4)nc3n2)cn1 [Example 109] | ++ | +/−
Fc1nc(N2CCCC2)ccc1-c1ccc2cc(-c3cncnc3)sc2n1 [Example 110] | + | +++
CNc1ccc(-c2cc3ccc(-c4ccc(N5CC[C@@H](F)C5)nc4)nc3s2)cc1F [Example 111] | +++ | +++
F[C@H]1CCN(c2ccc(-c3ccc4cc(-c5cccnc5)sc4n3)cn2)C1 [Example 112] | + | ++
CNc1ccc(-c2cc3ccc(-c4ccc(N5CC[C@H](F)C5)nc4)nc3s2)cc1F [Example 113] | + | ++
F[C@@H]1CCN(c2ccc(-c3ccc4cc(-c5cn[nH]c5)sc4n3)cn2)C1 [Example 114] | +++ | +++
O=C1NCCc2nc(-c3ccc(N4CC[C@H](F)C4)nc3)sc21 [Example 118] | + | +
O=C1NCCc2nc(N3CC[C@H](F)C3)sc21 [Example 119] | + | −
F[C@@H]1CCCN(c2ccc(-c3nc4ncc(N5CCOCC5)cc4s3)cn2)C1 [Example 123] | + | +
O=C1COCCN1c1ccc2nc(-c3cnn(CCF)c3)sc2c1 [Example 125] | + | +
O=C1CN(CCF)CCN1c1ccc2nc(-c3ccc(N4CCCC4)nc3)sc2c1 [Example 128] | ++ | ++
O=C1c2sc(-c3ccc(N4CC[C@@H](F)C4)nc3)nc2CCN1c1cccnc1 [Example 129] | ++ | +++
O=C1c2sc(-c3ccc(N4CC[C@H](F)C4)nc3)nc2CCN1c1cccnc1 [Example 130] | ++ | +++
N#Cc1ccc2sc(-c3ccc(N4CCCC4)nc3F)nc2n1 [Example 131] | ++ | +++
F[C@H]1CCCN(c2ccc(-c3nc4nc(-n5ccnc5)ccc4s3)cn2)C1 [Example 132] | ++ | +/−
